Laboratory results from patent US20240025918A1, “KRAS G12D Inhibitors” (Jacobio Pharmaceuticals Co., Ltd, priority 2020, published 2024).

Key:
[1] = molecular target: T1, GDP-loaded HIS-KRAS(G12D, aa 1-169) (Homo sapiens, UniProt P01116, G12D); assay: SOS1 catalyzed nucleotide exchange assay (TR-FRET); format: biochemical; settings: 4 hours at 25° C.
T1 construct: GDP-loaded HIS-KRAS(G12D, aa 1-169)
Protocol: GDP-loaded HIS-KRAS(G12D, aa 1-169) was pre-incubated with a compound in the presence of 10 nM GDPin a 384-well plate (Greiner) for 15 min, then purified SOS1 ExD(Flag tag, aa 564-1049), BODIPY™ FL GTP (Invitrogen) and MAb (monoclonal antibody) Anti 6HIS-Tb cryptate Gold (Cisbio) were added to the assay wells (Final concentration: 1.5 nM GDP-loaded HIS-KRAS(G12D), 5 nM GDP, 0.5 μM SOS1 ExD, 80 nM BODIPY™ FL GTP, 52.5 ng/mL MAb Anti 6HIS-Tb cryptate Gold) and incubated for 4 hours at 25° C. Wells containing same percent of DMSO served as vehicle control, and wells without KRAS served as low control. TR-FRET signals were read on Tecan Spark multimode microplate reader. The parameters were F486: Excitation 340 nm, Emission 486 nm, Lag time 100 μs, Integration time 200 μs; F515: Excitation 340 nm, Emission 515 nm, Lag time 100 μs, Integration time 200 μs. TR-FRET ratios for each individual wells were calculated by equation: TR-FRET ratio=(Signal F515/Signal F486)*10000. The percent of activation of compounds treated wells were normalized between vehicle control and low control (% Activation=(TR-FRET ratioCompound treated−TR-FRET ratioLow control)/(TR-FRET ratioVehicle control−TR-FRET ratioLow control)*100%). Then the data were analyzed by fitting a 4-parameter logistic model or calculating in Excel to calculate IC50 values.

[2] = molecular target: T2, GppNp-loaded HIS-KRAS(G12D, aa 1-169) and cRAF RBD (Homo sapiens, UniProt P01116, G12D); assay: GTP-KRAS and cRAF interaction assay (HTRF); format: biochemical; settings: 2 hours at 25° C.
T2 construct: GppNp-loaded HIS-KRAS(G12D, aa 1-169)
Protocol: GppNp-loaded HIS-KRAS(G12D, aa 1-169) was pre-incubated with a compound in the presence of 200 μM GTP in a 384-well plate (Greiner) for 15 min, then cRAF RBD(GST tag, aa 50-132, CreativeBioMart), MAb Anti GST-d2 (Cisbio) and MAb Anti 6HIS-Tb cryptate Gold (Cisbio) were added to the assay wells (Final concentration: 2.0 nM GppNp-loaded HIS-KRAS(G12D), 100 μM GTP, 35 nM cRAF RBD, 1 μg/mL MAb Anti GST-d2, 52.5 ng/mL MAb Anti 6HIS-Tb cryptate Gold) and incubated for 2 hours at 25° C. Wells containing same percent of DMSO served as vehicle control, and wells without KRAS served as low control. HTRF signals were read on Tecan Spark multimode microplate reader and HTRF ratios were calculated under manufacturer's instructions. The percent of activation of compounds treated wells were normalized between vehicle control and low control (% Activation=(HTRF ratioCompound treated−HTRF ratioLow control)/(HTRF ratioVehicle control−HTRF ratioLow control)*100%). Then the data were analyzed by fitting a 4-parameter logistic model or calculating in Excel to calculate IC50 values.

[3] = test system: AGS cells expressing KRAS G12D; assay: Phospho-ERK1/2(THR202/TYR204) HTRF assay; format: cell-based; settings: Homo sapiens; Phospho-ERK1/2 in AGS cells, 2 hours incubation
Protocol: AGS cells expressing KRAS G12D were cultured in F12K medium (Gibco) containing 10% fetal bovine serum (Gibco). The AGS cells in culture medium were seeded in 96-well plates at a concentration of 40,000 cells/well and then put in a 37° C./5% CO2 cell incubator to incubate overnight. The next day, culture medium was removed and the compound diluted in assay medium (F12K, 0.1% FBS) was added in each well. After 2 hours incubation in a 37° C./5% CO2 cell incubator, the assay medium in 96-well plates was removed, then 50 μL of 1× blocking reagent-supplemented lysis buffer (Cisbio) was added and the plates were incubated at 25° C. for 45 min with shaking. 10 μL of cell lysates from the 96-well plates were transferred to a 384-well plate (Greiner) containing 2.5 μL/well HTRF® pre-mixed antibodies (Cisbio 64AERPEH). Incubate 4 hours at 25° C. and then read HTRF signals on Tecan Spark multimode microplate reader. The data were analyzed using a 4-parameter logistic model to calculate IC50 values.

AsPC-1 = assay: Cell growth inhibition assay, AsPC-1 (CellTiter-Glo); format: cell-based; settings: Homo sapiens, ASPC1, 144 h; AsPC-1 cell viability, 6 days incubation
Protocol: AsPC-1 cultured in RPMI-1640 medium (Gibco) containing 10% fetal bovine serum (Gibco). Cells in culture medium were plated in 96-well plates at a concentration of 1000 cells/well (100 μL/well) and allowed to attach overnight.
(§1) The next day, compounds were diluted in culture medium and added to the plates. After 6 days incubation in a 37° C./5% CO2 cell incubator, the cell viability was detected by CellTiter-Glo® Luminescent Cell Viability Assay kit (Promega). Luminescent signals were read on Tecan Spark multimode microplate reader and analyzed using a 4-parameter logistic model to calculate IC50 values.

AGS = assay: Cell growth inhibition assay, AGS (CellTiter-Glo); format: cell-based; settings: Homo sapiens, 144 h; AGS cell viability, 6 days incubation
Protocol: AGS cultured in F12K medium (Gibco) containing 10% fetal bovine serum (Gibco). Cells in culture medium were plated in 96-well plates at a concentration of 500 cells/well (100 μL/well) and allowed to attach overnight.
as §1

T2 sequence (P01116 1-169 isoform P01116-2 G12D): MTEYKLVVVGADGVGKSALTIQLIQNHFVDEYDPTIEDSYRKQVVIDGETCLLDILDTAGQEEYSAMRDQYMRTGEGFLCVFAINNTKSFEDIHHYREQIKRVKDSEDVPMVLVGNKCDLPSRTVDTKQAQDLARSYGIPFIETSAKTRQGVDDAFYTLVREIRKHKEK
T1 sequence (P01116 1-169 isoform P01116-2 G12D): as above

| Compound | IC50 [1] [nM] | IC50 [2] [nM] | IC50 [3] [nM] | IC50 (AsPC-1) [nM] | IC50 (AGS) [nM] |
| --- | --- | --- | --- | --- | --- |
| C#Cc1cccc2cc(O)cc(-c3c(F)cc4c(N5CC6CCC(C5)N6)nc(OCC5(CN6CCCOCC6)CC5)nc4c3F)c12 [Compound 37] | 4.36 | 50.1 | 10.9 | 89.9 | 6.48 |
| C#Cc1cccc2cc(O)cc(-c3c(F)cc4c(N5CC6CCC(C5)N6)nc(OCC5(CN6CCC7(CCOC7)C6)CC5)nc4c3F)c12 (centres unmarked) [Compound 45] | 26.4 | 408 | 125 | 653 | 74.2 |
| C#Cc1cccc2cc(O)cc(-c3c(F)cc4c(N5CC6CCC(C5)N6)nc(OCC5(CN6CC7(CCOC7)C6)CC5)nc4c3F)c12 [Compound 46] | 5.92 | 242 | 23.1 | 488 | 55.4 |
| C#Cc1cccc2cc(O)cc(-c3c(F)cc4c(N5CC6CCC(C5)N6)nc(OCC5(CN6CCC7(CCCO7)C6)CC5)nc4c3F)c12 (centres unmarked) [Compound 47] | 2.58 | 92.1 | 31.4 | 227 | 29 |
| C#Cc1cccc2cc(O)cc(-c3c(F)cc4c(N5CC6CCC(C5)N6)nc(OCC5(CN6CC7(CCCCO7)C6)CC5)nc4c3F)c12 [Compound 48] | 1.49 | 118 | 38.6 | 315 | 36.4 |
| C#Cc1cccc2cc(O)cc(-c3c(F)cc4c(N5CC6CCC(C5)N6)nc(OCC5(CN6C[C@@H]7OCCO[C@@H]7C6)CC5)nc4c3F)c12 [Compound 50] | 1.39 | 42.5 | 9.39 | 70 | 3.49 |
| C#Cc1cccc2cc(O)cc(-c3c(F)cc4c(N5CC6CCC(C5)N6)nc(OCC5(CN6C7CCC6CC(=O)C7)CC5)nc4c3F)c12 [Compound 51] | 1.26 | 59.4 | 12.1 | 66 | 1.25 |
| C#Cc1cccc2cc(O)cc(-c3c(F)cc4c(N5CC6CCC(C5)N6)nc(OCC5(CN6CCc7sccc7C6)CC5)nc4c3F)c12 [Compound 52] | 4.26 | 286 | 271 | 93 | 32.4 |
| C#Cc1cccc2cc(O)cc(-c3c(F)cc4c(N5CC6CCC(C5)N6)nc(OCC5(CN6CCC7(CCOCC7)C6)CC5)nc4c3F)c12 [Compound 55] | 1.37 | 23.1 | 5.39 | 77 | 7.71 |
| C#Cc1cccc2cc(O)cc(-c3c(F)cc4c(N5CC6CCC(C5)N6)nc(OCC5(CN6CC7(CCO7)C6)CC5)nc4c3F)c12 [Compound 56] | 2.05 | 53.2 | 7.66 | 182 | 14.9 |
